Results: US20250304571A1, “BIOLOGICALLY ACTIVE COMPOUNDS AND METHODS THEREOF” (Suzhou Keen Therapeutics Co., Ltd., priority 2022, published 2025)
Where two headings read alike, the source gives them in different places.

Tested on: 786-O (renal cell carcinoma) cells
Test: Cell viability (CellTiter Glo) assay, inhibition of 786-O cell proliferation
Assay type: cell-based
Settings: Homo sapiens, read-out: IC50, inhibition of 786-O cell proliferation
[1] = 786-0, 786-O cells, 72 hours, CellTiter Glo

IC50 [1]	Compound	IC50 (786-0, 72 h)
0.1 to 0.5 µM	CNc1nc(COC(=N)N2CC(F)(F)C[C@@H]2C)nc2c1C(C)(C)C(=O)N2c1ccc(N2C[C@@H](C)O[C@@H](C)C2)nc1 [Compound E116]	
< 0.1 µM	CC1(C)C(=O)N(c2ccc(N3CCOCC3)cc2)c2nc(COC(=N)N3CCC[C@@H]3C(F)(F)F)nc(N)c21 [Compound E117]	
< 0.1 µM	N=C(OCc1ncc2c(n1)N(c1cnc(N3CCC(F)(F)CC3)nc1)C(=O)C21CCCC1)N1CCC[C@@H]1C(F)(F)F [Compound E118]	
< 0.1 µM	N=C(OCc1ncc(C2CCCO2)c(Nc2ccc(Oc3ccccc3)cc2)n1)N1CCCCC1C(F)(F)F (stereo not shown) [Compound E119]	
0.5 to 5 µM	CC(C)N(CC(F)(F)F)C(=N)OCc1ncc(C2=CCOCC2)c(Nc2ccc(N3CCOCC3)nc2)n1 [Compound E120]	
0.5 to 5 µM	CC1(C)CN(c2ccc(Oc3ccccc3)cc2)c2nc(COC(=N)N3CCCC34CCOCC4)ncc21 [Compound E121]	
0.5 to 5 µM	N=C(OCc1nc(N)nc(Nc2ccc(Oc3ccccc3)cc2)n1)N1CCCC12CCOCC2 [Compound E122]	
> 5 µM	CC(C)N(CC(F)(F)F)C(=N)OCc1ncc(C2CCOCC2)c(Nc2ccc(N3CCOCC3)nc2)n1 [Compound E124]	
	CC(C)N(CC(F)(F)F)C(=N)OCc1ncc2c(n1)N(c1ccc(Oc3ccccc3)cc1)CCO2 [Compound E125]	0.5 to 5 µM
	CC(C)N(CC(F)(F)F)C(=N)OCc1ncc2c(n1)N(c1ccc(OC3CCCCC3)nc1)CCO2 [Compound E126]	0.5 to 5 µM
0.1 to 0.5 µM	CC(C)N(CC(F)(F)F)C(=N)OCc1ncc2c(n1)N(c1ccc(OC3CCCCC3)nc1)CC2(C)C [Compound E127]	
0.1 to 0.5 µM	CCC(CC)Oc1ccc(N2CC(C)(C)c3cnc(COC(=N)N(CC(F)(F)F)C(C)C)nc32)nc1 [Compound E128]	
0.1 to 0.5 µM	CC(C)N(CC(F)(F)F)C(=N)OCc1ncc2c(n1)N(c1ccc(N3CCOCC3)nc1)CC2(C)C [Compound E129]	
0.1 to 0.5 µM	CC(C)Oc1cnc(COC(=N)N(CC(F)(F)F)C(C)C)nc1Nc1ccc(Oc2ccccc2)cc1 [Compound E131]	
0.1 to 0.5 µM	CC(C)N(CC(F)(F)F)C(=N)OCc1ncc2c(n1)N(c1ccc(OC3CCCC3)nc1)C(=O)C21CC1 [Compound E132]	
0.5 to 5 µM	CC(C)Oc1ccc(N2C(=O)C3(CC3)c3cnc(COC(=N)N(CC(F)(F)F)C(C)C)nc32)cn1 [Compound E133]	
0.5 to 5 µM	CC(C)N(CC(F)(F)F)C(=N)OCc1ncc2c(n1)N(C1CCC(Oc3ccccn3)CC1)C(=O)C21CC1 (stereo not shown) [Compound E134]	
0.5 to 5 µM	CC(C)N(CC(F)(F)F)C(=N)OCc1ncc2c(n1)N(c1ccc(OC3CCCCC3)cn1)CC2(C)C [Compound E135]	
< 0.1 µM	CN(CC(F)(F)F)C(=N)OCc1ncc2c(n1)N(c1ccc(Oc3ccccc3)cc1)CC2(C)C [Compound E136]	
< 0.1 µM	CC(C)N(CC(F)(F)F)C(=N)OCc1ncc2c(n1)N(c1ccc(Oc3ccccc3)cc1)CC21CC1 [Compound E137]	

IC50 [1]	Compound	IC50 (786-0, 72 h)
0.1 to 0.5 µM	CC(C)N(CC(F)(F)F)C(=N)OCc1ncc(C(C)(C)O)c(Nc2ccc(Oc3ccccc3)cc2)n1 [Compound E138]	
0.5 to 5 µM	CC(C)N(CC(F)(F)F)C(=N)OCc1ncc2c(n1)N(c1ccc(OC3CC3)nc1)C(=O)C21CC1 [Compound E139]	
	CN1CCN=C1OCc1ncc2c(n1)N(c1ccc(Oc3ccccc3)cc1)CC2(C)C [Compound E140]	0.5 to 5 µM
0.1 to 0.5 µM	CC(C)N(CC(F)(F)F)C(=N)OCc1ncc2c(n1)N(c1ccc(N3CCOCC3)nc1)CC21CC1 [Compound E141]	
0.5 to 5 µM	CC(C)N(CC(F)(F)F)C(=N)OCc1ncc2c(n1)N(c1cccc(Oc3ccccc3)c1)CC21CC1 [Compound E142]	
0.1 to 0.5 µM	CC(C)N(CC(F)(F)F)C(=N)OCc1ncc2c(n1)N(c1ccccc1Oc1ccccc1)CC21CC1 [Compound E143]	
0.5 to 5 µM	CC(C)N(CC(F)(F)F)C(=N)OCc1ncc2c(n1)N(c1cccc(OC3CCOCC3)c1)CC21CC1 [Compound E144]	
0.1 to 0.5 µM	CC(C)N(CC(F)(F)F)C(=N)OCc1ncc2c(n1)N(c1ccc(OC3CCOCC3)cc1)CC21CC1 [Compound E145]	
0.5 to 5 µM	N=C(OCc1ncc2c(n1)N(c1ccc(OC3CCOCC3)nc1)CC21CC1)N1CC(F)(F)C1 [Compound E146]	
	CN(C)C(=N)OCc1ncc2c(n1)N(c1ccc(OC3CCOCC3)nc1)CC21CC1 [Compound E147]	> 5 µM
> 5 µM	CC(C)N(CC(F)(F)F)C(=N)OCc1ncc2c(n1)N(c1ccc(N3CCOCC3)nc1)C(=O)CC2 [Compound E148, 1-isopropyl-2-[[8-(6-morpholino-3-pyridyl)-7-oxo-5,6-dihydropyrido[2,3-d]pyrimidin-2-yl]methyl]-1-(2,2,2-trifluoroethyl)isourea]	
0.5 to 5 µM	CC(C)N(CC(F)(F)F)C(=N)OCc1ncc2c(n1)N(c1ccc(N3CCOCC3)nc1)C(=O)C21CC1 [Compound E149]	
0.1 to 0.5 µM	CC(C)N(CC(F)(F)F)C(=N)OCc1ncc2c(n1)N(c1ccc(N3CCCCC3)nc1)C(=O)C21CC1 [Compound E150]	
> 5 µM	CN1CCCN=C1OCc1ncc2c(n1)N(c1ccc(Oc3ccccc3)cc1)CC2(C)C [Compound E151, 5,5-dimethyl-2-(((1-methyl-1,4,5,6-tetrahydropyrimidin-2-yl)oxy)methyl)-7-(4-phenoxyphenyl)-6,7-dihydro-5H-pyrrolo[2,3-d]pyrimidine]	
< 0.1 µM	CNc1nc(COC(=N)N2CCCC2C(F)(F)F)nc2c1C(C)(C)C(=O)N2c1ccc(N2CCOCC2)cc1 (stereo not shown) [Compound E152, [5,5-dimethyl-4-(methylamino)-7-(4-morpholinophenyl)-6-oxo-pyrrolo[2,3-d]pyrimidin-2 yl]methyl 2-(trifluoromethyl)pyrrolidine-1-carboximidate]	
< 0.1 µM	CNc1nc(COC(=N)N2CCCCC2C(F)(F)F)nc2c1C(C)(C)C(=O)N2c1ccc(N2CCOCC2)cc1 (stereo not shown) [Compound E153]	
< 0.1 µM	[2H]C([2H])(OC(=N)N(CC(F)(F)F)C(C)C)c1nc(N)c2c(n1)N(c1ccc(OC3CCCCC3)cc1)CC2(C)C [Compound E154, ethyl (4-amino-7-(4-(cyclohexyloxy)phenyl)-5,5-dimethyl-6,7-dihydro-5H-pyrrolo[2,3-d]pyrimidin-2-yl)methyl-d2 isopropyl(2,2,2-trifluoroethyl)carbamimidate]	
< 0.1 µM	[2H]C([2H])(OC(=N)N1CCCCC1C(F)(F)F)c1nc(N)c2c(n1)N(c1ccc(OC3CCCCC3)cc1)CC2(C)C (stereo not shown) [Compound E155]	
0.5 to 5 µM	CC(C)N(CC(F)(F)F)C(=N)OCc1ncc(C2CCCCO2)c(Nc2ccc(N3CCOCC3)nc2)n1 (stereo not shown) [Compound E156, (4-((6-morpholinopyridin-3-yl)amino)-5-(tetrahydro-2H-pyran-2-yl)pyrimidin-2-yl)methyl isopropyl]	
> 5 µM	CC(C)N(CC(F)(F)F)C(=N)OCc1ncc2c(n1)N(c1ccc(N3CCOCC3)cc1)C(=O)C21CCOCC1 [Compound E157, (7′-(4-morpholinophenyl)-6′-oxo-2,3,5,6,6′,7′-hexahydrospiro[pyran-4,5′-pyrrolo[2,3-d]pyrimidin]-2′-yl)methyl isopropyl(2,2,2-trifluoroethyl)carbamimidate]	
